Results on 30 compounds are retold here after patent US9981964B2 (Agency for Science, Technology and Research, priority 2013, dated 2018).

The subject of this experiment is HEK293-STF3A cells. Put plainly: STF3A assay (STF luciferase reporter in Wnt3A-expressing HEK293 cells). Format: cell-based. To be noted: Homo sapiens, 24 h, 1 day of treatment. The source says: HEK293-STF cell line was modified from Human embryonic kidney cell line HEK293 transfected with the STF reporter. HEK293-STF3A cell line was further modified from HEK293-STF cell line to express Wnt3A. This cell line was used to identify compounds that regulate either early or late signaling components of the Wnt pathway. These two cell lines were obtained from David Virshup's laboratory, Duke-NUS. L-Wnt3A (ATCC, #CRL-2647) cell line was used for providing Wnt3A conditioned media. The three cell lines were grown in DMEM with 10% FBS incubated in 37° C. with 5% CO2.
2×10^4 HEK293-STF3A cells in 75 μl culture media were seeded in each well of white 96 well plates (Greiner #655098) and incubated overnight at 37° C. 25 μl serially diluted compound was added to the cells to give final concentration of 50 μM to 1.5 nM. After 1 day of treatment, 100 μl of Steady-Glo Luciferase Assay reagent (#E2520, Promega) was added to each well and incubated for 10 minutes at room temperature. Luminescence was measured using Tecan Safire2 plate reader.
On the technique in general: In a reporter assay the amount or activity of a reporter protein is the signal.

A value given as a limit tells only on which side of the number the result lay.

With `CC(C(=O)Nc1ccc(-c2cccnc2)nc1)N1CCCC2=C1C(=O)N(C)C2=O` (stereo not drawn) [Compound 20, N-([2,3′-bipyridin]-5-yl)-2-(6-methyl-5,7-dioxo-2,3,4,5,6,7-hexahydro-1H-pyrrolo[3,4-b]pyridin-1-yl)propanamide], the IC50 (usually the midpoint of a concentration-inhibition curve) was less than 100 nM.

The compound `Cc1cc(NC(=O)CN2CCCC3=C2C(=O)N(C2CC2)C3=O)ncc1-c1cccnc1` [Compound 120, 2-(6-cyclopropyl-5,7-dioxo-2,3,4,5,6,7-hexahydro-1H-pyrrolo[3,4-b]pyridin-1-yl)-N-(4-methyl-[3,3′-bipyridin]-6-yl)acetamide] registered an IC50 of less than 1000 nM.

In the case of `Cc1cncc(-c2ccc(NC(=O)CN3CCCC4=C3C(=O)N(C)C4=O)nn2)c1` [Compound 41, 2-(6-methyl-5,7-dioxo-2,3,4,5,6,7-hexahydro-1H-pyrrolo[3,4-b]pyridin-1-yl)-N-(6-(5-methylpyridin-3-yl)pyridazin-3-yl)acetamide], the IC50 was less than 100 nM.

The compound `CN1C(=O)C2=C(C1=O)N(CC(=O)Nc1ccc(-c3cccnc3)nc1)CCC2` [Compound 10, N-([2,3′-bipyridin]-5-yl)-2-(6-methyl-5,7-dioxo-2,3,4,5,6,7-hexahydro-1H-pyrrolo[3,4-b]pyridin-1-yl)acetamide] came in with a half-maximal inhibitory concentration (IC50) of less than 100 nM.

`CN1C(=O)C2=C(C1=O)N(CC(=O)Nc1ccc(-c3cccnc3)cn1)CCC2` [Compound 8, N-([3,3′-bipyridin]-6-yl)-2-(6-methyl-5,7-dioxo-2,3,4,5,6,7-hexahydro-1H-pyrrolo[3,4-b]pyridin-1-yl)acetamide] had a half-inhibitory concentration (IC50) of less than 100 nM.

`CN1C(=O)C2=C(C1=O)N(CC(=O)Nc1ccc(-c3ccc(F)nc3)nn1)CCC2` [Compound 46, N-(6-(6-fluoropyridin-3-yl)pyridazin-3-yl)-2-(6-methyl-5,7-dioxo-2,3,4,5,6,7-hexahydro-1H-pyrrolo[3,4-b]pyridin-1-yl)acetamide] came in with a 50% inhibitory concentration (IC50) of less than 100 nM.

For `Cc1ncccc1-c1ccc(NC(=O)CN2CCCC3=C2C(=O)N(C2CC2)C3=O)nc1` [Compound 110, 2-(6-cyclopropyl-5,7-dioxo-2,3,4,5,6,7-hexahydro-1H-pyrrolo[3,4-b]pyridin-1-yl)-N-(2′-methyl-[3,3′-bipyridin]-6-yl)acetamide], the IC50 is less than 1000 nM.

`O=C(CN1CCCC2=C1C(=O)N(C1CC1)C2=O)Nc1ccc(-c2cccc(C(F)(F)F)c2)nn1` [Compound 55, 2-(6-cyclopropyl-5,7-dioxo-2,3,4,5,6,7-hexahydro-1H-pyrrolo[3,4-b]pyridin-1-yl)-N-(6-(3-(trifluoromethyl)phenyl)pyridazin-3-yl)acetamide]: the IC50 is less than 100 nM.

As to `COc1ccc(-c2ccc(NC(=O)CN3CCCC4=C3C(=O)N(C3CC3)C4=O)nc2)nc1` [Compound 130, 2-(6-cyclopropyl-5,7-dioxo-2,3,4,5,6,7-hexahydro-1H-pyrrolo[3,4-b]pyridin-1-yl)-N-(5-methoxy-[2,3′-bipyridin]-6′-yl)acetamide], the half-maximal inhibitory concentration (IC50) was less than 100 nM.

`Cc1cncc(-c2ccc(NC(=O)CN3CCCC4=C3C(=O)N(C3CC3)C4=O)nc2)n1` [Compound 128, 2-(6-cyclopropyl-5,7-dioxo-2,3,4,5,6,7-hexahydro-1H-pyrrolo[3,4-b]pyridin-1-yl)-N-(5-(6-methylpyrazin-2-yl)pyridin-2-yl)acetamide] returned an IC50 of less than 100 nM.

Compound `CN1C(=O)c2c(n(CC(=O)Nc3ccc(-c4cccnc4)nn3)ccc2=O)C1=O` [Compound 64, 2-(6-methyl-4,5,7-trioxo-4,5,6,7-tetrahydro-1H-pyrrolo[3,4-b]pyridin-1-yl)-N-(6-(pyridin-3-yl)pyridazin-3-yl)acetamide] gave an IC50 of less than 1000 nM.

On to `Cc1cccc(-c2ccc(NC(=O)CN3CCCC4=C3C(=O)N(C)C4=O)cn2)c1` [Compound 131, 2-(6-methyl-5,7-dioxo-2,3,4,5,6,7-hexahydro-1H-pyrrolo[3,4-b]pyridin-1-yl)-N-(6-(m-tolyl)pyridin-3-yl)acetamide], for which the IC50 was less than 100 nM.

`CN1C(=O)C2=C(C1=O)N(CC(=O)Nc1ccc(-c3nccs3)cn1)CCC2` [Compound 6, 2-(6-methyl-5,7-dioxo-2,3,4,5,6,7-hexahydro-1H-pyrrolo[3,4-b]pyridin-1-yl)-N-(5-(thiazol-2-yl)pyridin-2-yl)acetamide] showed an IC50 of less than 100 nM.

`Cc1cc(NC(=O)CN2CCCC3=C2C(=O)N(C2CC2)C3=O)nnc1-c1cccnc1` [Compound 62, 2-(6-cyclopropyl-5,7-dioxo-2,3,4,5,6,7-hexahydro-1H-pyrrolo[3,4-b]pyridin-1-yl)-N-(5-methyl-6-(pyridin-3-yl)pyridazin-3-yl)acetamide] had a 50% inhibitory concentration (IC50) of less than 5000 nM.

In the case of `C[C@@H](C(=O)Nc1ccc(-c2cccnc2)cn1)N1CCCC2=C1C(=O)N(C)C2=O` (single isomer, unassigned) [Compound 92], the IC50 was less than 100 nM.

In the case of `Cc1cc(-c2ccccc2)ccc1NC(=O)CN1CCCC2=C1C(=O)N(C)C2=O` [Compound 78, 2-(6-methyl-5,7-dioxo-2,3,4,5,6,7-hexahydro-1H-pyrrolo[3,4-b]pyridin-1-yl)-N-(3-methyl-[1,1′-biphenyl]-4-yl)acetamide], the IC50 was greater than 10000 nM.

Compound `CN1C(=O)C2=C(C1=O)N(CC(=O)Nc1ccc(-c3ccc(F)cc3)nn1)CCC2` [Compound 4, N-(6-(4-fluorophenyl)pyridazin-3-yl)-2-(6-methyl-5,7-dioxo-2,3,4,5,6,7-hexahydro-1H-pyrrolo[3,4-b]pyridin-1-yl)acetamide] registered a half-maximal inhibitory concentration (IC50) of less than 100 nM.

Regarding `CN1C(=O)C2=C(C1=O)N(CC(=O)Nc1ccc(-c3ccc(C(F)(F)F)nc3)nn1)CCC2` [Compound 45, 2-(6-methyl-5,7-dioxo-2,3,4,5,6,7-hexahydro-1H-pyrrolo[3,4-b]pyridin-1-yl)-N-(6-(6-(trifluoromethyl)pyridin-3-yl)pyridazin-3-yl)acetamide], the half-maximal inhibitory concentration (IC50) was less than 5000 nM.

The compound `CN1C(=O)C2=C(C1=O)N(CC(=O)Nc1cnc(-c3ccccc3)cn1)CCC2` [Compound 12, 2-(6-methyl-5,7-dioxo-2,3,4,5,6,7-hexahydro-1H-pyrrolo[3,4-b]pyridin-1-yl)-N-(5-phenylpyrazin-2-yl)acetamide] showed an IC50 of less than 100 nM.

The compound `CN1C(=O)C2=C(C1=O)N(CC(=O)Nc1ccc(-c3cccnc3)cc1)CCC2` [Compound 77, 2-(6-methyl-5,7-dioxo-2,3,4,5,6,7-hexahydro-1H-pyrrolo[3,4-b]pyridin-1-yl)-N-(4-(pyridin-3-yl)phenyl)acetamide] yielded a half-inhibitory concentration (IC50) of less than 100 nM.

In the case of `COc1ccc(-c2ccc(NC(=O)CN3CCCC4=C3C(=O)N(C3CC3)C4=O)cn2)cn1` [Compound 145, 2-(6-cyclopropyl-5,7-dioxo-2,3,4,5,6,7-hexahydro-1H-pyrrolo[3,4-b]pyridin-1-yl)-N-(6′-methoxy-2,3′-bipyridin-5-yl)acetamide], the IC50 was less than 100 nM.

`COc1ccc(-c2ccc(NC(=O)CN3CCCC4=C3C(=O)N(C)C4=O)nn2)cc1` [Compound 31, N-(6-(4-methoxyphenyl)pyridazin-3-yl)-2-(6-methyl-5,7-dioxo-2,3,4,5,6,7-hexahydro-1H-pyrrolo[3,4-b]pyridin-1-yl)acetamide] yielded an IC50 of less than 100 nM.

The compound `COc1cncc(-c2ccc(NC(=O)CN3CCCC4=C3C(=O)N(C3CC3)C4=O)cn2)c1` [Compound 144, 2-(6-cyclopropyl-5,7-dioxo-2,3,4,5,6,7-hexahydro-1H-pyrrolo[3,4-b]pyridin-1-yl)-N-(5′-methoxy-2,3′-bipyridin-5-yl)acetamide] yielded a 50% inhibitory concentration (IC50) of less than 100 nM.

Consider `CN1C(=O)C2=C(C1=O)N(CC(=O)Nc1ccc(-c3ccccn3)cc1)CCC2` [Compound 76, 2-(6-methyl-5,7-dioxo-2,3,4,5,6,7-hexahydro-1H-pyrrolo[3,4-b]pyridin-1-yl)-N-(4-(pyridin-2-yl)phenyl)acetamide], for which the 50% inhibitory concentration (IC50) is less than 100 nM.

In turn, `O=C(CN1CCCC2=C1C(=O)N(C1CC1)C2=O)Nc1ccc(-c2cncc(Cl)c2)nn1` [Compound 58, N-(6-(5-chloropyridin-3-yl)pyridazin-3-yl)-2-(6-cyclopropyl-5,7-dioxo-2,3,4,5,6,7-hexahydro-1H-pyrrolo[3,4-b]pyridin-1-yl)acetamide] registered an IC50 of less than 100 nM.

With `CC(C)N1C(=O)C2=C(C1=O)N(CC(=O)Nc1ccc(-c3ccccc3)nn1)CCC2` [Compound 33, 2-(6-isopropyl-5,7-dioxo-2,3,4,5,6,7-hexahydro-1H-pyrrolo[3,4-b]pyridin-1-yl)-N-(6-phenylpyridazin-3-yl)acetamide], the half-inhibitory concentration (IC50) is less than 100 nM.

On to `Cc1cc(-c2cccnc2)ncc1NC(=O)CN1CCCC2=C1C(=O)N(C1CC1)C2=O` [Compound 140, 2-(6-cyclopropyl-5,7-dioxo-2,3,4,5,6,7-hexahydro-1H-pyrrolo[3,4-b]pyridin-1-yl)-N-(4-methyl-2,3′-bipyridin-5-yl)acetamide], for which the 50% inhibitory concentration (IC50) was less than 10000 nM.

On to `Cc1ccccc1-c1ccc(NC(=O)CN2CCCC3=C2C(=O)N(C)C3=O)nn1` [Compound 27, 2-(6-methyl-5,7-dioxo-2,3,4,5,6,7-hexahydro-1H-pyrrolo[3,4-b]pyridin-1-yl)-N-(6-(o-tolyl)pyridazin-3-yl)acetamide], for which the IC50 is less than 1000 nM.

Compound `CC(C(=O)Nc1ccc(-c2cncc(F)c2)cn1)N1CCCC2=C1C(=O)N(C)C2=O` (stereo not drawn) [Compound 139, N-(5′-fluoro-3,3′-bipyridin-6-yl)-2-(6-methyl-5,7-dioxo-2,3,4,5,6,7-hexahydro-1H-pyrrolo[3,4-b]pyridin-1-yl)propanamide] had an IC50 of less than 100 nM.

With `O=C(CN1CCCC2=C1C(=O)N(C1CC1)C2=O)Nc1ccc(-c2cccnc2F)cn1` [Compound 104, 2-(6-cyclopropyl-5,7-dioxo-2,3,4,5,6,7-hexahydro-1H-pyrrolo[3,4-b]pyridin-1-yl)-N-(2′-fluoro-[3,3′-bipyridin]-6-yl)acetamide], the half-inhibitory concentration (IC50) was less than 100 nM.
